According to the supplement of paper PMC10307832:

Legend:
Assay in all cases: relative viability (nuclei count vs DMSO), 5 days (fraction); higher = more cells survive
NCI-H1666 = conditions: first compound 8 µM
Outline: (§1)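 Relative viability equals treated-well nuclei counts divided by vehicle-well nuclei counts. Counts came from 4× images of lung cancer cell lines grown in 1536-well plates for 5 days after pin-tool dosing on the day after seeding. Dosing used one drug alone or a fixed anchor-drug dose plus five library-drug doses (not always all listed) in √10 steps, and values are medians of duplicate plates.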

NCI-H1944 = test system: NCI-H1944
Outline: as §1

NCI-H2087 = test system: NCI-H2087
Outline: as §1

NCI-H322M = test system: NCI-H322M
Outline: as §1

NCI-H358 = test system: NCI-H358
Outline: as §1

NCI-H596 = test system: NCI-H596
Outline: as §1

NCI-H650 = test system: NCI-H650
Outline: as §1

NCI-H661 = test system: NCI-H661
Outline: as §1

NCI-H838 = test system: NCI-H838
Outline: as §1

PC-3 [JPC-3] = test system: PC-3 [JPC-3]
Outline: as §1

SK-MES-1 = test system: SK-MES-1
Outline: as §1

UMC-11 = test system: UMC-11
Outline: as §1

C=C1C(=O)O[C@@H](CCCCCCCC)[C@@H]1C(=O)O [C-75] + C[C@@H](Oc1cc(-c2cnn(C3CCNCC3)c2)cnc1N)c1c(Cl)ccc(F)c1Cl [Crizotinib] (partner 1 µM)
relative viability (NCI-H1666): 0.614 | relative viability (NCI-H1944; first compound 0.08 µM): 1.06 | relative viability (NCI-H1944; first compound 0.253 µM): 0.998 | relative viability (NCI-H1944; first compound 0.8 µM): 1.05 | relative viability (NCI-H1944; first compound 8 µM): 1.03 | relative viability (NCI-H2087; first compound 0.08 µM): 0.942 | relative viability (NCI-H2087; first compound 0.253 µM): 0.563 | relative viability (NCI-H2087; first compound 0.8 µM): 0.837 | relative viability (NCI-H2087; first compound 2.53 µM): 0.608 | relative viability (NCI-H2087; first compound 8 µM): 0.711 | relative viability (NCI-H322M; first compound 0.08 µM): 0.977 | relative viability (NCI-H322M; first compound 0.253 µM): 1.19 | relative viability (NCI-H322M; first compound 0.8 µM): 0.919 | relative viability (NCI-H322M; first compound 2.53 µM): 0.971 | relative viability (NCI-H322M; first compound 8 µM): 0.973 | relative viability (NCI-H358; first compound 0.08 µM): 0.63 | relative viability (NCI-H358; first compound 0.253 µM): 0.696 | relative viability (NCI-H358; first compound 0.8 µM): 0.59 | relative viability (NCI-H358; first compound 2.53 µM): 0.565 | relative viability (NCI-H358; first compound 8 µM): 0.618 | relative viability (NCI-H596; first compound 0.08 µM): 1.01 | relative viability (NCI-H596; first compound 0.253 µM): 0.937 | relative viability (NCI-H596; first compound 0.8 µM): 0.794 | relative viability (NCI-H596; first compound 2.53 µM): 0.875 | relative viability (NCI-H596; first compound 8 µM): 1.03 | relative viability (NCI-H650; first compound 0.08 µM): 0.679 | relative viability (NCI-H650; first compound 0.253 µM): 0.72 | relative viability (NCI-H650; first compound 0.8 µM): 0.668 | relative viability (NCI-H650; first compound 2.53 µM): 0.597 | relative viability (NCI-H650; first compound 8 µM): 0.729 | relative viability (NCI-H661; first compound 0.08 µM): 1.1 | relative viability (NCI-H661; first compound 0.253 µM): 1.02 | relative viability (NCI-H661; first compound 0.8 µM): 1.04 | relative viability (NCI-H661; first compound 2.53 µM): 0.933 | relative viability (NCI-H661; first compound 8 µM): 1.09 | relative viability (NCI-H838; first compound 0.08 µM): 0.786 | relative viability (NCI-H838; first compound 0.253 µM): 0.561 | relative viability (NCI-H838; first compound 0.8 µM): 0.807 | relative viability (NCI-H838; first compound 2.53 µM): 0.792 | relative viability (NCI-H838; first compound 8 µM): 0.789 | relative viability (PC-3 [JPC-3]; first compound 0.08 µM): 1.01 | relative viability (PC-3 [JPC-3]; first compound 0.253 µM): 0.99 | relative viability (PC-3 [JPC-3]; first compound 0.8 µM): 0.98 | relative viability (PC-3 [JPC-3]; first compound 2.53 µM): 1.05 | relative viability (PC-3 [JPC-3]; first compound 8 µM): 1.14 | relative viability (SK-MES-1; first compound 0.08 µM): 1.04 | relative viability (SK-MES-1; first compound 0.253 µM): 0.997 | relative viability (SK-MES-1; first compound 0.8 µM): 0.953 | relative viability (SK-MES-1; first compound 8 µM): 0.941 | relative viability (UMC-11; first compound 0.08 µM): 0.688 | relative viability (UMC-11; first compound 0.253 µM): 0.625 | relative viability (UMC-11; first compound 0.8 µM): 0.651 | relative viability (UMC-11; first compound 2.53 µM): 0.497 | relative viability (UMC-11; first compound 8 µM): 0.461
